Experiment [1] can be described thus: Agonist activity at mGlu4a receptor assessed as inhibition of forskolin-stimulated cAMP production. Type of experiment: functional, Homo sapiens. Background: Cyclic AMP is a second messenger, typically raised through Gs and lowered through Gi signalling.
Experiment [2] has as its target Metabotropic glutamate receptor 4 (Rattus norvegicus, UniProt P31423). Kind of experiment: Agonist activity at rat mGlu4 receptor expressed in HEK293 cells coexpressing Gq/Gi and EAAC1 assessed as intracellular calcium production measured every 1.5 secs for 60 secs by Fluo-4-AM based fluorometry. Format: functional, cell-based. (In general: Calcium assays in cells follow changes in intracellular calcium, usually with a dye or a luminescent sensor.)

The target of experiment [3] is Metabotropic glutamate receptor 4 (Rattus norvegicus) (UniProt P31423). The experiment in a line: Ratio of glutamate EC50 to compound EC50 for rat mGlu4 receptor expressed in HEK293 cells. Type of experiment: cell-based.
Chain of Metabotropic glutamate receptor 4 (Rattus norvegicus) (P31423 whole entry): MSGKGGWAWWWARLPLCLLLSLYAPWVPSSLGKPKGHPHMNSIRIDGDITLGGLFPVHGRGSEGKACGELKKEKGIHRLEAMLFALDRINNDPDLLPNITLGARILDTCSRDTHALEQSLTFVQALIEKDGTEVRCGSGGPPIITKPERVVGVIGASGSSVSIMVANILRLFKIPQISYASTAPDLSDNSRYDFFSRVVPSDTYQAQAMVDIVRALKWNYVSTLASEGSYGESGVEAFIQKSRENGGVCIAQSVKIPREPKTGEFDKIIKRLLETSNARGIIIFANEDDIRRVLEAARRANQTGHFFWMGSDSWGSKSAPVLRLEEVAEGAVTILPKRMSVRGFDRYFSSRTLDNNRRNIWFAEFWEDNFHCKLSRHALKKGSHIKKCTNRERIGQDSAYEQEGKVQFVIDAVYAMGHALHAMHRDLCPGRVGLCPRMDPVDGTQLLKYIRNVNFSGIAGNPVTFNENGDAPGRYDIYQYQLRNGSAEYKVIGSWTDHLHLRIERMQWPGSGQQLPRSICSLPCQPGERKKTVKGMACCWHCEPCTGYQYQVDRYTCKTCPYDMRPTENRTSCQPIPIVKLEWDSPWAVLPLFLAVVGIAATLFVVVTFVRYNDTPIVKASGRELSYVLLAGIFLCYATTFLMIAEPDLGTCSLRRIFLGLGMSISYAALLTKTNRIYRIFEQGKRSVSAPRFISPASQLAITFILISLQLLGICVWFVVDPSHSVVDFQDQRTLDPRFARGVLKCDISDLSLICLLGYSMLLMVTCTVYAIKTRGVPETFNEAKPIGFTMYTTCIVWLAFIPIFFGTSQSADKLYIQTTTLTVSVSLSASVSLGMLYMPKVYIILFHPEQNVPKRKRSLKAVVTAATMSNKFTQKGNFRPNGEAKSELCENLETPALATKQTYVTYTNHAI
The target is the same in experiment [4]. Kind of experiment: Ratio of (E)APCPr EC50 to compound EC50 for rat mGlu4 receptor expressed in HEK293 cells. Type of experiment: cell-based.
Experiment [5] shares this target. Kind of experiment: Agonist activity at rat mGlu4 receptor expressed in HEK293 cells coexpressing Gq/Gi and EAAC1 assessed as intracellular calcium production at 100 uM measured every 1.5 secs for 60 secs by Fluo-4-AM based fluorometry. Format: functional, cell-based.

What is called EC50 is the concentration at which the effect is half-maximal.

The source made the active and inactive calls. No cut-off for these calls is given here.

Chain of Metabotropic glutamate receptor 4 (P31423 whole entry): as above

Regarding `N[C@@H](CCP(=O)(O)O)C(=O)O`, the 50% effective concentration (EC50) in experiment [1] amounted to 0.43 µM.

Take `N[C@@]1(C(=O)O)C[C@@]1(F)C(O)P(=O)(O)O` (mixture of isomers): in experiment [2], the EC50 came out at 1400 µM.

As to `N[C@]1(C(=O)O)C[C@@]1(F)CP(=O)(O)O` (racemic), the Ratio EC50 in experiment [3] amounted to 10; in experiment [4] it was 7. Besides, the EC50 in experiment [2] was 0.34 µM. The outcome in experiment [5] was Active.

With `N[C@]1(C(=O)O)C[C@@]1(F)CCC(=O)O` (racemic), the EC50 in experiment [2] worked out at 609 µM.

Take `N[C@]1(C(=O)O)C[C@@]1(F)CC(=O)O` (racemic): the EC50 in experiment [2] came out at 465 µM.

As for `N[C@]1(C(=O)O)C[C@@]1(F)CS(=O)(=O)O` (racemic), the EC50 in experiment [2] came to 85.6 µM.

For the compound `N[C@]1(C(=O)O)C[C@H]1CP(=O)(O)O` (racemic), in experiment [1], the concentration for a half-maximal effect (EC50) was found to be 7.9 µM.

As for `N[C@@H](CCC(=O)O)C(=O)O` [GLUTAMIC ACID], the EC50 in experiment [2] worked out at 2.88 µM.

For the origin of these results see ChEMBL document CHEMBL2057106, “Α-amino-β-fluorocyclopropanecarboxylic acids as a new tool for drug development: synthesis of glutamic acid analogs and agonist activity towards metabotropic glutamate receptor 4” (Bioorg Med Chem, 2012).
